Reference: patent publication US7879914B2, “Methods for treating viral infections using polyamine analogs” (Pathlogica LLC, priority 2005, dated 2011)

What was measured:
[1] = test system: CD14/CD16+ blood macrophages from normal (uninfected) patients; test: Susceptibility assay: killing of CD14/CD16+ blood macrophages from normal patients; assay type: cell-based, human; settings: FIG. 4, ex vivo
Procedure: The following procedures/protocols were used in some of the examples that follow. All steps were performed in a biological safety cabinet using Universal Precautions for handling human blood samples and standard aseptic techniques.
The PBMC for the susceptibility assays was prepared in accordance with the following procedures. A cell culture medium was prepared by mixing RPMI+10% FBS+1% sodium pyruvate and filter sterilized using a filter unit with 0.22 micron pore size. The cell pellet was then resuspended in 3 ml of the cell culture medium. The suspension was gently mixed by slowly pipetting up and down 3 times. The cells were counted using a hemacytometer and the cell density was adjusted to 1×10^6 cells/mL in the cell culture medium, followed by mixing by slowly pipetting up and down 3 times. The cells were incubated in a 50 mL sterile polypropylene tube, at 37° C. and 5% CO2 for 1-2 days. […]
Fluorescence emission measurements were obtained with a flow cytometer, using the following instrument settings in BD FACSCAN: 1) Detector: FL1=533 amps; FL2=570 amps; and FL3=550 amps; 2) Threshold=FSC 180; 3) Compensation: FL1 10.5% FL2; FL2 26.1% FL1; FL2 8.3% FL3; FL3 25.4% FL2; 4) Count=50,000 UNgated events.
The ability of polyamine analogs MGBG and CG47 to kill CD14/CD16+ blood macrophages in HIV infected and normal patients was measured. […]

HIV proviral DNA = test: HIV proviral load after exposure of mononuclear cells in culture (Example 7); assay type: cell-based
Procedure: Mononuclear cells from HIV infected individuals were isolated and exposed to PA-001 in culture under non-adherent conditions for five days. The cells were then separated into CD3+ and CD14+ fractions via antibody-coated magnetic beads using a Miltenyi apparatus. The “-/-” samples represent flow thru after CD3+ and CD14+ cells were removed. Genomic DNA was prepared and then amplified with HIV specific primers and primers homologous to the single copy gene cJun. Results with HIV specific primers were normalized to those obtained with cJun. The number of HIV DNA copies per cellular DNA equivalent after exposure of mononuclear cell cultures from HIV infected individuals to PA-001 under non-adherent conditions for five days is shown in FIG. 7. Results with HIV specific primers were normalized to those obtained with cJun. Each bar represents the mean of three separate determinations. The error bar indicates one standard deviation from the mean. The numbers under the sample designations indicate the % of CD16+ monocytes killed by PA-001. ND=not done.

CD14+ CD16+ monocytes = test: In vitro killing of cultured rhesus macaque monocytes; assay type: cell-based
Procedure: Dose response experiments with MGBG were performed to assess its ability to kill CD14+ CD16+ monocytes in nonadherent PBMC cultures.

SIVmac251 = test: SIVmac251-infected, CD8-depleted rhesus macaques, escalating doses; assay type: in vivo, rhesus macaque
Procedure: For these experiments, rhesus macaques were infected with SIVmac251 and depleted of CD8+ T lymphocytes by administration of a humanized CD8-depleting antibody. […] These monkeys were then treated with escalating doses of MGBG.
The animals were treated with MGBG (PA-001) beginning five days post infection (p.i.) with 200 mg/m^2 PA-001, and then treated 7 and 14 days later with 300 mg/m^2 and 400 mg/m^2, respectively of PA-001.
Rhesus macaques similar to those described in Example 9 were used for these studies. An SIVmac251-infected, CD8-depleted monkey was treated with PA-001 (MGBG) beginning five days p.i. with 200 mg/m^2 PA-001, and then treated 7 and 14 days later with 300 mg/m^2 and 400 mg/m^2, respectively of PA-001. A control monkey was SIVmac251-infected and CD8-depleted, but not treated with PA-001. Blood macrophages from control and treated monkeys were sorted every week into three subsets: CD14+/16−, CD14+/16+ and CD14−/16+ where CD14− indicates a low level of CD14 expression. Quantitative SIV PCR analysis of the sorted subsets was subsequently performed.

Row | Structure (SMILES) | sensitivity of CD14/CD16+ macrophages from the normal patient [1] | HIV proviral load in cells that neither bound to CD14 or CD3 antibodies (HIV proviral DNA; FIG. 7B) | yield of HIV DNA in T cells (HIV proviral DNA; five days, CD3+ fraction) | HIV proviral load in CD14+ cells (HIV proviral DNA; five days, non-adherent conditions) | activated monocytes killed (CD14+ CD16+ monocytes; 10 μM, five-day assay, monkey n=4) [%] | decrease of CD14+ CD16+ monocytes, dose dependence (CD14+ CD16+ monocytes; nonadherent PBMC cultures, five days) | levels of CD14+CD16+ monocytes in blood (SIVmac251; 200, 300, 400 mg/m^2 from five days p.i., by day 21 p.i.) | perivascular cuffs and virus in the CNS (SIVmac251; 21 days p.i., preliminary histopathological analysis) | SIV DNA in sorted blood macrophage subsets (SIVmac251; after the first and second dose, quantitative SIV PCR) | decrease in Mac387 stained monocyte/macrophage cell number in lymph node (SIVmac251; compared to untreated animals) | plasma virus versus control (SIVmac251; treated animals vs untreated control)
1 | CCNCCCNC/C=C\CNCCCNCC.Cl.Cl.Cl.Cl [CG47, N,N′-bis(3-ethylaminopropyl)-cis-but-2-ene-1,4-diamine tetrahydrochloride] | essentially unaffected |  |  |  |  |  |  |  |  |  | 
2 | CC(/C=N/NC(=N)N)=N\NC(=N)N [MGBG] |  | effective in reducing | generally decreased slightly | significant decreases | 80 | dose-dependent decrease | depleted below detectable levels | did not have perivascular cuffs or detectable virus | no longer had any detectable SIV DNA | 50-80% | did not show significant differences
